{"source": "patent US11459586B2", "about": "“Methods for increasing efficiency of nuclease-mediated gene editing in stem cells” (President and Fellows of Harvard College, priority 2016, dated 2022)", "tested_on": "human iPSC", "experiment": "Jak2 V617F single base pair editing in hiPSC, HR and NHEJ by MiSeq", "assay_type": "cell-based", "excerpt": "FIGS. 6A-C. Bcl-2 overexpression increases the efficiency of engineering single base pair changes using ssODN donors in human iPSC. FIG. 6A. A sgRNA was designed to target exon 14 of human JAK2. The V617F mutation was encoded within 110 bp ssODN donors (in either the plus or minus orientation) or a plasmid containing 1.9 kb and 1.3 kb flanking homology arms. Small triangles indicate the primer sites for the genotyping PCR reaction outside the ssODN sequence. Plain human iPSC were transfected with 2 μg “Cas9 only sgRNA” or “Cas9 Bcl-2 sgRNA” expression plasmid and/or 10 μM ssODN or 2 μg V617F plasmid donor. 17 days later, cells were harvested for genomic DNA purification. The genomic region around exon 14 was PCR amplified and analyzed by MiSeq. FIG. 6B. […] The percent of MiSeq reads containing the Jak2 V617F mutation (HR) or indel mutations (NHEJ) is indicated together with a plot of bp position along the PCR product versus the number of sequencing reads. […]\nA second round of nested PCR with PCR index primers sold under the trademark NEXTERA™ index primers (IIlumina) was used to add barcodes and remaining adaptor sequences. Both PCR reactions were supplemented with fluorescent dye sold under the trademark SYBR® Green (Invitrogen) and monitored on a quantitative PCR machine to prevent over-amplification. […]", "data": [{"substance": "Bcl-2: B cell lymphoma 2 protein, anti-apoptotic, overexpressed from lentivirus or Cas9 plasmid", "values": [{"measurement": "increase of absolute recombination frequency (HR)", "setting": "oligo (ssODN) donors, Bcl-2 on the Cas9 plasmid", "result": "2-4 fold"}, {"measurement": "absolute recombination frequency (HR)", "setting": "plasmid donor, Bcl-2 on the Cas9 plasmid (from 25% without)", "result": 39, "unit": "%"}]}]}
